Data taken from US10870647B2, “Imidazopyridine derivative, method for preparing same, and pharmaceutical composition containing same as active ingredient for preventing or treating cancer” (DAEGU-GYEONGBUK MEDICAL INNOVATION FOUNDATION, priority 2016, dated 2020).

Assays:
Assay in all cases: Kinase selectivity, scanMAX Kinase assay panel (DiscoverX), % control at 1 uM
Format in all cases: binding
[1] = biological target: T1, scanMAX Kinase assay panel (Homo sapiens, UniProt O14730); settings: RIOK3; 1 uM; read-out: Percent Control (%)
T1 construct: purchased DiscoverX
T1 sequence (O14730 1-519): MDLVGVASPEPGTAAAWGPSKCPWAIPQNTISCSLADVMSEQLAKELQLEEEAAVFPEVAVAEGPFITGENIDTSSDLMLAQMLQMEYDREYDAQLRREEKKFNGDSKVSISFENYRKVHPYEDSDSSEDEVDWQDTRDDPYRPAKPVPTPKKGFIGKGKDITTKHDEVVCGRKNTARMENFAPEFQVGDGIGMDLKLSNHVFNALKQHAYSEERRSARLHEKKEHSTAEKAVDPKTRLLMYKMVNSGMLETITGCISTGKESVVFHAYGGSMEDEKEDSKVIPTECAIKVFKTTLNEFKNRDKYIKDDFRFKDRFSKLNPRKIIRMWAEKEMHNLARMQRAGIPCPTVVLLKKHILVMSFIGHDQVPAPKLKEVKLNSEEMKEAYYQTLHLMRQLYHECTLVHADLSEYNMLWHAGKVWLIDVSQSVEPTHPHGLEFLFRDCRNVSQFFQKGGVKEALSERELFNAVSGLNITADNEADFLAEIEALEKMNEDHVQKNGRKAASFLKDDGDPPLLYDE
Procedure, shortened: (§1)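 Activity was called for kinases showing % control under 35, calculated from compound signal relative to positive and negative controls. Each compound screened at 1 uM against the DiscoverX scanMAX panel.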

[2] = biological target: T2, scanMAX Kinase assay panel (Homo sapiens, UniProt P06213); settings: INSR; 1 uM; read-out: Percent Control (%)
T2 construct: purchased DiscoverX
Procedure, shortened: as §1

[3] = biological target: T3, scanMAX Kinase assay panel (Homo sapiens, UniProt P08922); settings: ROS1; 1 uM; read-out: Percent Control (%)
T3 construct: purchased DiscoverX
Procedure, shortened: as §1

[4] = biological target: T4, scanMAX Kinase assay panel (Homo sapiens, UniProt Q9BWU1); settings: CDK11; 1 uM; read-out: Percent Control (%)
T4 construct: purchased DiscoverX
Procedure, shortened: as §1

[5] = biological target: T5, scanMAX Kinase assay panel (Homo sapiens, UniProt Q9UL54); settings: TAOK2; 1 uM; read-out: Percent Control (%)
T5 construct: purchased DiscoverX
T5 sequence (Q9UL54 1-1235): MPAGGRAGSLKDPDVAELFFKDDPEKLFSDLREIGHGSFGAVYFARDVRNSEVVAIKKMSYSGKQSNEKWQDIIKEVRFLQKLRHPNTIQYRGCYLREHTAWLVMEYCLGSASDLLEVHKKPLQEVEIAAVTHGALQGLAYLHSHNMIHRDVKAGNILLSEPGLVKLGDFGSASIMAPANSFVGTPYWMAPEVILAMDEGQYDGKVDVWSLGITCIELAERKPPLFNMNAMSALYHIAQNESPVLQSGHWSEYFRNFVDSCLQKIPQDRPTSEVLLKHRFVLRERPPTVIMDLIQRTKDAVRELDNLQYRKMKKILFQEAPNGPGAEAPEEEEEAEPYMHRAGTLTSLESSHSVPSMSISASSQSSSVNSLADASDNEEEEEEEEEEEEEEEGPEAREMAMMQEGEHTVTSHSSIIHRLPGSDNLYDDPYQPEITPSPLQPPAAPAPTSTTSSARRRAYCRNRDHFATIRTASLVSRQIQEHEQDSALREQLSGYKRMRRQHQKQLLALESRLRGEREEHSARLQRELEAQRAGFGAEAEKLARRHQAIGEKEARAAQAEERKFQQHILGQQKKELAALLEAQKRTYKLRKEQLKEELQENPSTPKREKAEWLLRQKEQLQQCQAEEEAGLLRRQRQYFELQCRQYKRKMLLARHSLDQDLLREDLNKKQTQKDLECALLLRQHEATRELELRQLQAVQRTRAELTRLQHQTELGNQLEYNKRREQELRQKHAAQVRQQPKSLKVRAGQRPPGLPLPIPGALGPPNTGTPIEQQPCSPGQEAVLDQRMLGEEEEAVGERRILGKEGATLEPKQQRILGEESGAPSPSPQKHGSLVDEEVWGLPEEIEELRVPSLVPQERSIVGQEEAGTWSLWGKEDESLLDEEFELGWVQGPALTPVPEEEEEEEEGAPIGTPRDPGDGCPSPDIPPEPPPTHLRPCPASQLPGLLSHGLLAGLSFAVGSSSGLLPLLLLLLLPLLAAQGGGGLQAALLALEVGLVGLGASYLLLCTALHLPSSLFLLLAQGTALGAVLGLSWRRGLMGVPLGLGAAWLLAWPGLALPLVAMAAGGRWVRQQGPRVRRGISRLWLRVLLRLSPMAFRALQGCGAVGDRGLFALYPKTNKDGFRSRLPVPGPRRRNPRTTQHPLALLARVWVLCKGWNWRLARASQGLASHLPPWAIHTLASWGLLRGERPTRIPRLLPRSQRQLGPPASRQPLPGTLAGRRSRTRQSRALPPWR
Procedure, shortened: as §1

T2 sequence (P06213 28-1382): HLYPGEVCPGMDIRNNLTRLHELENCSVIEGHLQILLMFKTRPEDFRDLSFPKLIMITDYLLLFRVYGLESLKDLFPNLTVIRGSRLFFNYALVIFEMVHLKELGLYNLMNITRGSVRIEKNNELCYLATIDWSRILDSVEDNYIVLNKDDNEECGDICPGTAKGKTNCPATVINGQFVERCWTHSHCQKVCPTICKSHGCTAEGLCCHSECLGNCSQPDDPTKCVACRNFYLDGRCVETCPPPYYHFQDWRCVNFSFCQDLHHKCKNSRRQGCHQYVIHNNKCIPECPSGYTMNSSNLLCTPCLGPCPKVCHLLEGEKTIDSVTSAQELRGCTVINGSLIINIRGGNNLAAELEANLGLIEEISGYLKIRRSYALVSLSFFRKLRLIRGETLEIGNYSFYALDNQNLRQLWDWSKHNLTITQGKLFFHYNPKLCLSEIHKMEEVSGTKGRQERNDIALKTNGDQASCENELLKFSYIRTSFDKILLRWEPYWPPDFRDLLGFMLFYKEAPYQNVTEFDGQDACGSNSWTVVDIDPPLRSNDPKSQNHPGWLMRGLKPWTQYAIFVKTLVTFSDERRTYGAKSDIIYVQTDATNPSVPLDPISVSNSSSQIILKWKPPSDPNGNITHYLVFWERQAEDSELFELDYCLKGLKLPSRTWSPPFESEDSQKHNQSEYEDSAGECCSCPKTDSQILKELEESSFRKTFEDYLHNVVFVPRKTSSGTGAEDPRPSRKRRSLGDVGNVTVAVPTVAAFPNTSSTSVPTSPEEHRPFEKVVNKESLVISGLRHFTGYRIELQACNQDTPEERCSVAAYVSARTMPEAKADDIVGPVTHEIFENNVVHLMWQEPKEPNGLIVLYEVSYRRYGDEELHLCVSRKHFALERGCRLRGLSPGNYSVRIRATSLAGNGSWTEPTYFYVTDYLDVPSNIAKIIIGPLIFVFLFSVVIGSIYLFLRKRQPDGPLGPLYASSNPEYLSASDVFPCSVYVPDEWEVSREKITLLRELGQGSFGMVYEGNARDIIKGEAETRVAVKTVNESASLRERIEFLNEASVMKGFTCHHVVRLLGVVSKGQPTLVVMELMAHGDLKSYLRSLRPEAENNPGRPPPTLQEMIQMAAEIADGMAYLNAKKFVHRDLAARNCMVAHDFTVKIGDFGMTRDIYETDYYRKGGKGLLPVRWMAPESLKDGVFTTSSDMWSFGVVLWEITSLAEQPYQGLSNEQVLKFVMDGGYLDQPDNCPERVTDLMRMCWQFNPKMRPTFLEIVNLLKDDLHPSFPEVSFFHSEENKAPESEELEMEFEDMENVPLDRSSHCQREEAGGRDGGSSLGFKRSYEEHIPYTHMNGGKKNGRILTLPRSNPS
T3 sequence (P08922 28-2347): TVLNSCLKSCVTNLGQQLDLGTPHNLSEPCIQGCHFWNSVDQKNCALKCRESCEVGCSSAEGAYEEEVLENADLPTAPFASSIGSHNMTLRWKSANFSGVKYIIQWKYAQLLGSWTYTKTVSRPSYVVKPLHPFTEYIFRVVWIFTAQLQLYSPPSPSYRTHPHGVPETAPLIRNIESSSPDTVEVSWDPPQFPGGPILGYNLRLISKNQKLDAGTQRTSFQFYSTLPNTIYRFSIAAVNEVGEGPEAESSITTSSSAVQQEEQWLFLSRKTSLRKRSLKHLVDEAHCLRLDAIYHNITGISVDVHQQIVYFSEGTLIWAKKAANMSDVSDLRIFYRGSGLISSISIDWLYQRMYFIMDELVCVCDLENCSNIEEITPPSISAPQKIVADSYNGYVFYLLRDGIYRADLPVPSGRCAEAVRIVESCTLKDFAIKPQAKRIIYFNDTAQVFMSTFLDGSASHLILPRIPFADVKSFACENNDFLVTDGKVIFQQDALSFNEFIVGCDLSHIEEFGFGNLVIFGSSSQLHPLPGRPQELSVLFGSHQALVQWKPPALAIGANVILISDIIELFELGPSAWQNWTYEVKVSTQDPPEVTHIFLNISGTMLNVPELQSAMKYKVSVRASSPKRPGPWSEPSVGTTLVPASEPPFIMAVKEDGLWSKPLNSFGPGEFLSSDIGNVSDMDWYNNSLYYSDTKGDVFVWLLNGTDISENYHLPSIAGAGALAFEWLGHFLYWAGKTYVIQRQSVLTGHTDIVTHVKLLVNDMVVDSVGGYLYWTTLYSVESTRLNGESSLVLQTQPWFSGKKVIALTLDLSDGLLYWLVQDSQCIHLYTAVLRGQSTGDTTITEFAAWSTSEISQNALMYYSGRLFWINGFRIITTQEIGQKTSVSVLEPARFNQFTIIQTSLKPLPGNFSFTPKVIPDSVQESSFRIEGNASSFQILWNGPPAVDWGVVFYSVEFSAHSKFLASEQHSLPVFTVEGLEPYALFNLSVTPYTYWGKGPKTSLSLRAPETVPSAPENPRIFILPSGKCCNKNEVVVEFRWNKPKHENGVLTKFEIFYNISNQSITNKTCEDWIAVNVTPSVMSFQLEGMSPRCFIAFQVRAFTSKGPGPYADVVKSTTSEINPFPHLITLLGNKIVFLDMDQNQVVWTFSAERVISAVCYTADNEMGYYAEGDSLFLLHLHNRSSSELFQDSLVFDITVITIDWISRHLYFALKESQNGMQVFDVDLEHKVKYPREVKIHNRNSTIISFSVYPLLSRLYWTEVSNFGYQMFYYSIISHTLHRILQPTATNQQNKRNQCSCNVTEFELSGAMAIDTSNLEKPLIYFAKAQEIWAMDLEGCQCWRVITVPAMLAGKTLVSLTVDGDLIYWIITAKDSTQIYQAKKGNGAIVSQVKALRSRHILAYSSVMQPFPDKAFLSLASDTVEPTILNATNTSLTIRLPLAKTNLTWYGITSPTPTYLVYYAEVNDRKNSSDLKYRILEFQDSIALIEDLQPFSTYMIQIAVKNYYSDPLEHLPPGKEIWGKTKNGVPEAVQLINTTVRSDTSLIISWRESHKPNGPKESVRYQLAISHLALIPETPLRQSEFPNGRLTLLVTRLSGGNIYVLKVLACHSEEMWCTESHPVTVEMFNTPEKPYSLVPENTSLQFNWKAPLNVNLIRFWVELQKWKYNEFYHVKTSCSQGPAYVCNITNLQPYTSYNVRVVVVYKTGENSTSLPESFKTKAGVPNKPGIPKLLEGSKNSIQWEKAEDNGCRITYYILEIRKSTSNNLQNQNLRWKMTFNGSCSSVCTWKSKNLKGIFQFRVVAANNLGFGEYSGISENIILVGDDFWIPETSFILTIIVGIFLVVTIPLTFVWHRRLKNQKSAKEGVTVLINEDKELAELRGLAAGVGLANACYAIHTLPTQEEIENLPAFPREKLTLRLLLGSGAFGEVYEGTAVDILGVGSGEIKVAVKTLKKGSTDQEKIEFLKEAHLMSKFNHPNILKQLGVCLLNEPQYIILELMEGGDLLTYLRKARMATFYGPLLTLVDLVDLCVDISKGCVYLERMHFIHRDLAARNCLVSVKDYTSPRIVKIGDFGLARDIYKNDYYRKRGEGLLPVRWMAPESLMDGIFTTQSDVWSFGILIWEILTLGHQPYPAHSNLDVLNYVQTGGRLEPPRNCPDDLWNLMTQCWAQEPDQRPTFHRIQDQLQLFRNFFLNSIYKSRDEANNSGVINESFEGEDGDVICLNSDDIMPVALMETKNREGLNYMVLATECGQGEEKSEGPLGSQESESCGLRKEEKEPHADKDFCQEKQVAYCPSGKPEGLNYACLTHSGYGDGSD
T4 sequence (Q9BWU1 whole entry): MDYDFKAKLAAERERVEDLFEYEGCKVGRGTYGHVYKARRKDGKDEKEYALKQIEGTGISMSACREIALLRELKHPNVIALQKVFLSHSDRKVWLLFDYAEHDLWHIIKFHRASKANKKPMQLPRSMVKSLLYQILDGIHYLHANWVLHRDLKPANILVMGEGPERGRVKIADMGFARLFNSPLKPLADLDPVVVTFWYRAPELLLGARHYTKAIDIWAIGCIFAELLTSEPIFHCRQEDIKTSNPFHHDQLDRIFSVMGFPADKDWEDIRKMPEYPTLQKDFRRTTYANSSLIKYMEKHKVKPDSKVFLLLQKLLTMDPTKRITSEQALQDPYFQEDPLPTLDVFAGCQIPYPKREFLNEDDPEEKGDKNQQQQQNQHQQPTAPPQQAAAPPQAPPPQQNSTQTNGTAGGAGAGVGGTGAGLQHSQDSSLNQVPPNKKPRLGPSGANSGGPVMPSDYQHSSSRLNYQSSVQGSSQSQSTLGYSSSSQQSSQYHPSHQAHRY

Row | SMILES | remaining binding at 1 µM [1] [%] | remaining binding at 1 µM [2] [%] | remaining binding at 1 µM [3] [%] | remaining binding at 1 µM [4] [%] | remaining binding at 1 µM [5] [%]
1 | Cc1ccc(NC(=O)C2(C(=O)Nc3ccc(F)cc3)CC2)cc1C#Cc1cnc2c(Nc3cnn(C(C)C)c3)cccn12 [Example 78] | 95 | 100 | 92 | 100 | 100
2 | Cc1cn(-c2cc(NC(=O)c3ccc(C)c(C#Cc4cnc5c(Nc6cnn(C)c6)cccn45)c3)cc(C(F)(F)F)c2)cn1 [Example 12, 4-methyl-N-(3-(4-methyl-1H-imidazol-1-yl)-5-(trifluoromethyl)phenyl)-3-((8-((1-methyl-1H-pyrazol-4-yl)amino)imidazo[1,2-a]pyridin-3-yl)ethynyl)benzamide] | 96 | 99 | 51 | 19 | 25
3 | Cc1ccc(C(=O)Nc2ccc(CN3CCN(C)CC3)c(C(F)(F)F)c2)cc1C#Cc1cnc2c(Nc3cnn(C)c3)cccn12 [Example 1, 4-methyl-3-((8-((1-methyl-1H-pyrazol-4-yl)amino)imidazo[1,2-a]pyridin-3-yl)ethynyl)-N-(4-((4-methylpiperazin-1-yl)methyl)-3-(trifluoromethyl)phenyl)benzamide] | 94 | 54 | 39 | 0 | 14
